Measured values as given in patent US20200024278A1, “COMPOSITION COMPRISING ANTIBIOTIC COMPOUND AND AN HETEROCYCLIC COMPOUND AND THEIR USE IN PREVENTING OR TREATING BACTERIAL INFECTIONS” (MUTABILIS, priority 2016, published 2020).

Legend:
Assay in all cases: MIC, broth microdilution (CLSI), substance alone or ATB combined with compound at 4 or 8 μg/mL
ECO 190317 = assay type: cell-based, E. coli; conditions: ECO 190317; for MIC ATB combined with Example: Example @4 μg/ml
Summary of the method: (§1)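 Growth inhibition endpoint, read visually after 16-20 h at 35° C in ambient air. Cation-adjusted Mueller-Hinton broth, inoculum 5·10^5 CFU/mL, CLSI M7-A7 protocol.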

ECO UFR39 = assay type: cell-based, E. coli; conditions: ECO UFR39; for MIC ATB combined with Example: Example @4 μg/ml; for MIC ATB combined with Example compound: compound @4 μg/ml
Summary of the method: as §1

KPN 6299 = assay type: cell-based, K. pneumoniae; conditions: for MIC ATB combined with Example: Example @4 μg/ml
Summary of the method: as §1

KPN BAA-1898 = assay type: cell-based, K. pneumoniae; conditions: KPN BAA-1898; for MIC ATB combined with Example: Example @4 μg/ml
Summary of the method: as §1

KPN UFR42 = assay type: cell-based, K. pneumoniae; conditions: KPN UFR42; for MIC ATB combined with Example: Example @4 μg/ml; for MIC ATB combined with Example compound: compound @4 μg/ml
Summary of the method: as §1

ECL P99 = assay type: cell-based, E. cloacae; conditions: ECL P99; for MIC ATB combined with Example: Example @4 μg/ml
Summary of the method: as §1

PAE 105250 = assay type: cell-based, P. aeruginosa; conditions: PAE 105250, Example @4 μg/ml
Summary of the method: as §1

O=C1N2CC(n3ccnn3)=C[C@H](C2)N1OS(=O)(=O)[O-].[Na+] [Example 16, sodium [(5R)-7-oxo-3-(triazol-1-yl)-1,6-diazabicyclo[3.2.1]oct-3-en-6-yl] sulfate]
MIC ATB combined with Example (ECO 190317; ATB ATM): <0.031 µg/mL | MIC ATB combined with Example (ECO 190317; ATB FEP): <0.031 µg/mL | MIC ATB combined with Example (ECO 190317; ATB FOS): <0.125 µg/mL | MIC ATB combined with Example (ECO 190317; ATB MEM): <0.031 µg/mL | MIC ATB combined with Example (ECO 190317; ATB PIP): <0.031 µg/mL | MIC ATB combined with Example compound (ECO 190317; MIC of CIP, compound @4 μg/ml): <0.031 µg/mL | MIC (ECO 190317; substance alone): 0.5 µg/mL | MIC ATB combined with Example (ECO UFR39; ATB ATM): <0.031 µg/mL | MIC ATB combined with Example (ECO UFR39; ATB FEP): <0.031 µg/mL | MIC ATB combined with Example (ECO UFR39; ATB FOS): <0.125 µg/mL | MIC ATB combined with Example (ECO UFR39; ATB MEM): <0.031 µg/mL | MIC ATB combined with Example (ECO UFR39; ATB PIP): <0.031 µg/mL | MIC ATB combined with Example compound (ECO UFR39; MIC of CIP): <0.031 µg/mL | MIC ATB combined with Example compound (ECO UFR39; MIC of CPO): <0.031 µg/mL | MIC (ECO UFR39; substance alone): 0.5 µg/mL | MIC ATB combined with Example (KPN 6299; ATB ATM): <0.031 µg/mL | MIC ATB combined with Example (KPN 6299; ATB FEP): <0.031 µg/mL | MIC ATB combined with Example (KPN 6299; ATB FOS): <0.125 µg/mL | MIC ATB combined with Example (KPN 6299; ATB MEM): <0.031 µg/mL | MIC ATB combined with Example (KPN 6299; ATB PIP): <0.031 µg/mL | MIC ATB combined with Example compound (KPN 6299; MIC of CIP, compound @4 μg/ml): <0.031 µg/mL | MIC ATB combined with Example (KPN BAA-1898; ATB ATM): <0.031 µg/mL | MIC ATB combined with Example (KPN BAA-1898; ATB FEP): <0.031 µg/mL | MIC ATB combined with Example (KPN BAA-1898; ATB FOS): <0.125 µg/mL | MIC ATB combined with Example (KPN BAA-1898; ATB MEM): <0.031 µg/mL | MIC ATB combined with Example (KPN BAA-1898; ATB PIP): <0.031 µg/mL | MIC ATB combined with Example compound (KPN BAA-1898; MIC of CIP, compound @4 μg/ml): <0.031 µg/mL | MIC (KPN BAA-1898; substance alone): 1 µg/mL | MIC ATB combined with Example (KPN UFR42; ATB ATM): <0.031 µg/mL | MIC ATB combined with Example (KPN UFR42; ATB FEP): <0.031 µg/mL | MIC ATB combined with Example (KPN UFR42; ATB FOS): <0.125 µg/mL | MIC ATB combined with Example (KPN UFR42; ATB MEM): <0.031 µg/mL | MIC ATB combined with Example (KPN UFR42; ATB PIP): <0.031 µg/mL | MIC ATB combined with Example compound (KPN UFR42; MIC of CIP): <0.031 µg/mL | MIC ATB combined with Example compound (KPN UFR42; MIC of CPO): <0.031 µg/mL | MIC (KPN UFR42; substance alone): 2 µg/mL | MIC ATB combined with Example (ECL P99; ATB ATM): <0.031 µg/mL | MIC ATB combined with Example (ECL P99; ATB FEP): <0.031 µg/mL | MIC ATB combined with Example (ECL P99; ATB FOS): <0.125 µg/mL | MIC ATB combined with Example (ECL P99; ATB MEM): <0.031 µg/mL | MIC ATB combined with Example (ECL P99; ATB PIP): <0.031 µg/mL | MIC ATB combined with Example compound (ECL P99; MIC of CIP, compound @4 μg/ml): <=0.031 μg/mL | MIC (ECL P99; substance alone): 1 µg/mL | MIC ATB combined with Example (PAE 105250; ATB ATM): 8 µg/mL | MIC ATB combined with Example (PAE 105250; ATB FEP): 4 µg/mL | MIC ATB combined with Example (PAE 105250; ATB FOS): >128 µg/mL | MIC ATB combined with Example (PAE 105250; ATB MEM): 2 µg/mL | MIC ATB combined with Example (PAE 105250; ATB PIP): >32 µg/mL
